A short description of data set [1]: Compound pharmacokinetics in mice. It counts as in vivo. Conditions: male ICR mice, oral gavage 10 mg/kg, plasma; for Cmax / AUC(0-inf) / half-life: mouse; for AUC(0-inf): read-out: AUCinf—Pred; for half-life: read-out: T½ (converted). As to the method:
To investigate the pharmacokinetic properties of the compound in mice, six male ICR mice were given the compound by oral gavage (10 mg/kg) at the corresponding dose, and each route of administration was divided into two groups: group A mice had anticoagulated whole blood collected at 5 min, 30 min, 2 h and 8 h after administration, while group B mice had anticoagulated whole blood collected at 15 min, 1 h, 4 h and 24 h after administration, isolated plasma;
The plasma concentrations of the compounds were determined by LC-MS using a standard curve calibration method. Plasma concentration-time data were fitted to pharmacokinetic parameters using Winnolin 5.2 software.

Data set [2] is described as follows: Metabolic stability of liver microsomes in vitro (human). It counts as in vitro ADME. The conditions noted are these: read-out: Human T1/2/min. As to the method: Microsomes were taken out from the −80° C. refrigerator, rapidly melted in a 37° C. water bath and placed on ice until ready to use. The test article was diluted with DMSO to prepare a 10 mM stock solution, and then diluted with acetonitrile to a 0.5 mM secondary stock solution. The microsomes were diluted to 0.75 mg/ml using Buffer C; the secondary stock solution was then added to a final concentration of 1.5 μM of compound as working solution, based on n=2, 5 time points, 350 μL of each compound was prepared and placed on ice prior to use. NADPH was diluted with Buffer C to a working solution of 6 mM for the starter solution. An acetonitrile solution containing an internal standard was prepared as the precipitant, and Verapamil-HCl was chosen as the internal standard at a concentration of 4 ng/ml.
A round-bottom well plate was taken, noted as the reaction plate, and the prepared working solution for each compound was dispensed into the well plate according to the number of replicates and time points (0 h samples are also added to the reaction plate), 30 μL/well; the plate was incubated at 37° C. for 10 min. A separate plate with pointed bottom wells, noted as a precipitation plate, was added with 135 μL precipitant per well; 0 h samples were transferred to the plate after 10 min incubation and 15 μL of starter solution was added; the plate was placed on ice before centrifugation.
The diluted starter solution was added in sufficient quantity to the dispensing plate to facilitate the multichannel pipette aspiration operation.
The reaction was carried out on a warm incubation shaker and 15 μL of starter solution/sample is added to the plate using a multichannel pipette. The reaction was mixed with a slight shake to initiate the reaction, which was accurately timed and recorded using a timer;
After the reaction time had elapsed, all the solution in the plate was aspirated using the multichannel pipette and added to the precipitation plate to terminate the reaction at that point in time. After all reactions had been terminated, the plates were shaken for ten minutes on a plate shaker at 600 rpm to precipitate the protein. The plate was centrifuged at 4° C. for 15 minutes at maximum rpm. 80 μL of supernatant was taken, 320 μL of pure water was added and mixed for LC-MS analysis.
(Liver microsomes are a subcellular fraction often used to study metabolism.)

The target in a further data set is T1, CYP1A2 (Homo sapiens, UniProt P05177).
T1 sequence (P05177 1-516): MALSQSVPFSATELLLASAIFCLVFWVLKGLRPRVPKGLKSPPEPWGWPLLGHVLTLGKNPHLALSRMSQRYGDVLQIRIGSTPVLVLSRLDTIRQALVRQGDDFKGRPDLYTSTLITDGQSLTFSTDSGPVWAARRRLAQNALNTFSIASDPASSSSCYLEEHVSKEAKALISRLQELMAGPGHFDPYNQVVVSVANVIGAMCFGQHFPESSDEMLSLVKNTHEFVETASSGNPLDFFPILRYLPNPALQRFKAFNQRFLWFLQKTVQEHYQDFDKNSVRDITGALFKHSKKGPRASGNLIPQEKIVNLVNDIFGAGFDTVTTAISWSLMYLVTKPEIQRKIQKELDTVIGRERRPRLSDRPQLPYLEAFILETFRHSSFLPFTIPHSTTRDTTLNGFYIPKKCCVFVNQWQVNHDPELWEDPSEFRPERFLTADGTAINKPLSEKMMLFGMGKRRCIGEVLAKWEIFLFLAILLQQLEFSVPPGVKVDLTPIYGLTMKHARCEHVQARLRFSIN
Put plainly: Inhibition of cytochrome P450, CYP1A2. It counts as in vitro ADME. The conditions noted are these: CYP1A2 enzyme, pH 7.4, probe EOMCC, read-out: CYP inhibition/% 1A2; for inhibition at 30 min, 1 µM: compound concentration 1 μM; for inhibition at 30 min, 10 µM: compound concentration 10 μM. As to the method: Enzymatic experiments were performed to quantify the inhibition of CYP450 enzyme activity of each isoform of CYP450 by small molecule inhibitors through fluorescence generated by the oxidation of the substrate by cytochrome P450. […] The Solution B composition used for the experiment was: 40 U/mL G6PDH (Sigma-aldrich, Cat #G6378). The substrate mix was 0.05× Solution A, 0.01× Solution B, 50 mM Potassium Phosphate, 0.01 mM BOMCC/0.01 mM EOMCC/0.001 mM DBOMF. […] The data were analyzed and processed using GraphPad Prism 6 software to obtain IC50 values.

Some results are limits rather than exact numbers.

As for `C=CCn1c(=O)c2cnc(Nc3ccc(N4CCN(C)CC4)cc3)nc2n1-c1cccc(C(C)(C)O)n1` [AZD-1775, reference compound], in data set [1], the Cl_pred was 347 mL/min/kg; the Cmax (as a rule, the peak of the concentration-time curve) worked out at 445 ng/mL; the AUC(0-inf) was determined as 500 ng·h/mL; the half-life is 0.77 h. For the same molecule, the half-life at 1 µM in data set [2] was > 2 h.
Turning to `CN1CCN(c2ccc(Nc3ncc4cnn(-c5cccc(N=S(C)(C)=O)n5)c4n3)cc2)CC1` [Compound 1], at CYP1A2, the inhibition at 30 min, 1 µM was determined as 18.4% and the inhibition at 30 min, 10 µM turned out to be 16.3%. Besides, in data set [1], the Cl_pred was found to be 658 mL/min/kg, the maximum concentration (Cmax) was found to be 169 ng/mL, the AUC(0-inf) was 260 ng·h/mL and the half-life was 1.71 h. The half-life at 1 µM in data set [2] was > 2 h.
With `CN1CCN(c2ccc(Nc3ncc4cnn(-c5cccc(C(C)(C)O)n5)c4n3)cc2)CC1` [Compound 2], at CYP1A2, the inhibition at 30 min, 1 µM amounted to 13.5% and the inhibition at 30 min, 10 µM stood at 14.2%. Besides, the half-life at 1 µM in data set [2] was > 2 h.
As to `CS(C)(=O)=Nc1cccc(-n2ncc3cnc(Nc4ccc(N5CCOCC5)cc4)nc32)n1` [Compound 6], on CYP1A2, the inhibition at 30 min, 1 µM is 15.5% and the inhibition at 30 min, 10 µM was found to be 23.3%.
Consider `Cc1cc(Nc2ncc3cnn(-c4cccc(N=S(C)(C)=O)n4)c3n2)ccc1N1CCC(N(C)C)CC1` [Compound 14], for which the half-life at 1 µM in data set [2] was > 2 h.
Still for that read-out and setting: the same measure for `Cc1cc(Nc2ncc3cnn(-c4cccc(N=S(C)(C)=O)n4)c3n2)ccc1N1CCN(C)CC1` [Compound 16]: > 2 h.

The record behind these values is US12649748B2, “Wee1 inhibitor and use thereof” (JIANGSU TASLY DIYI PHARMACEUTICAL CO., LTD., priority 2021, dated 2026).
